# Values joined by “and” are separate entries in the source; they are usually repeats but may differ in a detail not shown here. Identical values can stand only once.
# Experiments:
# Hsp90α = test system: Hsp90α; set-up: method as in Supplementary References 1 and 2; conditions: reported for Hsp90α; ref Supplementary References 1 and 2; cited from earlier work
# endogenous Hsp90 = experiment: Hsp90 labelling with 11 in live HeLa cells in the presence of competitive Hsp90 inhibitors; conditions: 11 0.5 µM, 10 µM competitive inhibitor
# FKBP12 [1] = target: T1, FKBP12 (Homo sapiens, UniProt P62942); experiment: FKBP12 labelling in vitro (MALDI-TOF MS); assay type: biochemical; conditions: for FKBP12 labelling yield: 5 µM FKBP12, 10 µM reagent, pH 7.2, 37 °C
# T1 construct: GST (factor Xa site) (N, cleaved yes); made in house; host or cells: E. coli BL21 Star (DE3)
# T1 sequence (P62942 whole entry): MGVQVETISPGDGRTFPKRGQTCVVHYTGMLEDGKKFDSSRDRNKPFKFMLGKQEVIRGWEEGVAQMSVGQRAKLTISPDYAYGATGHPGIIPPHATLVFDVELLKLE
# Description: Recombinant human FKBP12 was obtained as described in Supplementary Methods.
# FKBP12 [2] = target: T1, FKBP12; experiment: Kinetic analysis of FKBP12 labelling; assay type: biochemical; conditions: for kL, labelling rate constant: FKBP12 100 nM, HEPES pH 7.2, 37 °C, mean of triplicate ± s.d.; for Kd: from curve fitting of kapp vs reagent concentration, FKBP12, pH 7.2, 37 °C; for kinact/KI: pH 7.2, read-out: kL/Kd, second-order rate constant
# Description: With the optimal NASA reactive group in hand, we next investigated the reaction kinetics of LD chemistry in in vitro protein labelling. The labelling reaction of LD chemistry follows Eq. (1):1 P+R⇆KdPR→kLP^* where P is a native (non-labelled) protein, R is the reagent, PR is the native protein–reagent complex, P* is the labelled-protein, Kd is the dissociation constant and kL is the rate constant for the labelling process. When [R] > [P], the pseudo-first-order reaction rate (kapp) is given as follows (see Supplementary Methods)[35]:2 P+PR/P0= exp-kappt 3 kapp=kL/1+Kd∕R […]
# The reaction time courses of FKBP12 labelling with various concentrations of 1 (200–2000 nM) were monitored by MALDI-TOF MS (Fig. 3b) and plotted to determine kapp using Eq. (2) (Fig. 3c). The values of kapp obtained in this manner were then plotted against the concentration of 1, which were well fitted by Eq. (3) (Fig. 3d). The labelling rate constant kL and the dissociation constant Kd of 1 were determined from curve fitting analysis to be (6.1 ± 0.6) × 10^−3 s^−1 and (2.1 ± 0.2) × 10^−7 M, respectively (the mean of triplicate ± standard deviation (s.d)) (Table 1).
# The residual ratio of nonlabelled protein ([P] + [PR]/[P]0) were determined by MALDI-TOF MS (matrix: CHCA). The pseudo-first order reaction rates (kapp) were obtained by fitting the data to Eq. (2). Kinetic parameters were obtained by fitting the data to Eq. (3).
# Kinetics of labelling reaction of LD chemistri es
# The labelling reaction of LD chemistr y follows as Supplementary Equation (2) 3: where P is a native (non- labelled) protein, R is a reagent, PR is a native protein- reagent complex, P* is a labelled-protein, Kd is a dissociation constant, and k L is a rate constant for labelling process. Hyd r o l ys i s (deactivation) of LD reagents during the labelling process is negligible owing to these stabilities in buffer s olution (Supplementary Figure 3, also see
# Supplementary R eferences 4–6) . The equations to be solved for the rate of labelling reaction […]
# The solution of the equat ions is
# According to the Supplementar y Equation (4), the k L and Kd values were obtained from the […]
# Preparation of purif ied FKB P12
# FKBP12 [3] = target: T1, FKBP12; experiment: FKBP12 labelling in HeLa cell lysate (western blotting); assay type: biochemical; conditions: 37 °C
# endogenous FKBP12 = target: T2, endogenous FKBP12 (Mus musculus, UniProt P26883); experiment: Chemical labelling of endogenous FKBP12 in C2C12 cells; assay type: cell-based; conditions: live C2C12 cells, 1 µM
# T2 construct: endogenous FKBP12 inside live cells was specifically modified with biotin; endogenous in cells; host or cells: C2C12 mouse myoblast cells (ATCC)
# T2 sequence (P26883 whole entry): as the sequence (P62942 whole entry) above, with M50T, T76I, P79S counted along it
# Protocol: We then conducted intracellular endogenous FKBP12 labelling. Mouse myoblast C2C12 cells were incubated in culture medium containing 1 for 10–120 min at 37 °C. The cells were lysed and analysed by western blotting. […] Although the reaction rate was slightly slower than that of the in vitro experiments, probably because of the low membrane-permeability of 1, it should be noted that the labelled band was detectable after just 10 min incubation with 1, highlighting the rapid kinetics of LDNASA chemistry.
# Mouse myoblast C2C12 cells (ATCC) (2.0 × 10^5 cells) were cultured in Dulbecco’s modified Eagle’s medium (DMEM) supplemented with 10% foetal bovine serum (FBS, Gibco), penicillin (100 units/ml), streptomycin ([…]), and amphotericin B (250 ng/ml), and incubated in a 5% CO2 humidified chamber at 37 °C. The cells were then incubated in FBS-free DMEM containing reagent (1 μM) at 37 °C for 120 min. As control experiments, the labelling was conducted in the presence of Rapamycin (10 μM). For western blot analysis, after washing twice with PBS, the cells were lysed with RIPA buffer (pH 7.4, 25 mM Tris–HCl, 150 mM NaCl, 0.1% SDS, 1% Nonidet P-40, 0.25% deoxycholic acid) containing 1% protease inhibitor cocktail set III (Calbiochem). […] The samples were subjected to SDS-PAGE and electro-transferred onto an Immun-Blot PVDF membrane (Bio-Rad). The labelled FKBP12 was detected by chemiluminescence analysis using Streptavidin-HRP conjugate, rabbit anti-FKBP12 antibody (Abcam, ab2918, 1:1000) and anti-rabbit IgG-HRP conjugate (CST, #7074 S, 1:5000).
# Supplementary Figure 11 Quantification of labelling yields of endogenous FKBP12 in C2C12 cells. After C2C12 cells were incubated with LDNAS A 1 (1 µM) for 1 h, the cells were washed twi ce with PBS and l ys ed with R IPA buffer (pH 7.4, 25 mM Tris–HCl, 150 mM NaCl, 0.1% SDS, 1% Nonidet P-40, 0.25% deoxycholic acid) containing 1% protease inhibitor cocktail and rapamycin (10 µM) , which were aliquoted as input samples. All biotinylated proteins in the lysate were captured with Streptavidin agarose beads ( S Av -agarose, Thermo ). The flow through and elution fraction, as well as i nput samples, wer e subjected to Western blotting analysis using SAv- HRP and anti-FKBP12 antibody. Th e labelling yields were calculated by the following equation( Supplementar y Equation1) :
# LLLLLLLLLLLLLLLLLL yy LLLLLLyy ( %) = IILLII LLLLII LLIIyyFFFFFFFF12 ,IIIIIIIIII – IILLII LLLLII LLIIyyFFFFFFFF12,FFFFFFFF IIhrrFFIIrr h × 100 ( 1) IILLII LLLLII LLIIyyFFFFFFFF12 ,IIIIIIIIII
# Experiments were performed in triplicates (Ex.1–Ex.3), and the labelling yields of endogenous FKBP12 in C2C12 cells at 1 h with 1 were estimated to be 78 ± 2 % (mean ± standard deviation). Control, a sample without labelling; *, Nonspecific band derived from […]
# [4] = Evaluation of stabilities of LDNASA reagents (hydrolysis in aqueous buffer, HPLC); conditions: for fraction hydrolysed: after incubation for 48 h at 37 °C, 50 mM HEPES pH 7.2
# eDHFR = target: T3, eDHFR (Escherichia coli, UniProt P0ABQ4); experiment: Kinetic analysis of eDHFR labelling; assay type: biochemical; conditions: for kL, labelling rate constant: eDHFR 300 nM, HEPES 1 mM pH 7.2, 37 °C, mean of triplicate ± s.d.; for kinact/KI / Kd: eDHFR, pH 7.2, 37 °C; for kinact/KI: read-out: kL/Kd, second-order rate constant; for Kd: from curve fitting of kapp vs reagent concentration
# T3 construct: thioredoxin (N, cleaved yes); made in house; host or cells: E. coli Top10
# T3 sequence (P0ABQ4 whole entry): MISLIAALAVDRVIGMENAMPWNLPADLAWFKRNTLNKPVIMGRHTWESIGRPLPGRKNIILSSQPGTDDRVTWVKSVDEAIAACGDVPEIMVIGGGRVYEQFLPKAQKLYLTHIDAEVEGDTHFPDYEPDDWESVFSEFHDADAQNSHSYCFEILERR
# SKBR3 cells = experiment: Cell viability assay (WST-8); conditions: SKBR3, 3 h treatment, washing, further 69 h
# [5] = test system: Hsp90-client proteins HER2, cRaf, Akt and pAkt; experiment: Western blotting of Hsp90 client proteins; conditions: SKBR3, 3 h treatment, washing, further 21 h
# [6] = target: N-terminal ATP binding domain of Hsp90α (Homo sapiens, UniProt P07900)
# [7] = target: N-terminal domain of Hsp90α (Homo sapiens, UniProt P07900); experiment: In vitro labelling of N-terminal domain of Hsp90α (MALDI-TOF MS); conditions: 6.4 µM protein, 10 µM 12, 37 °C; at Lys 58
# intracellular Hsp90 = conditions: SKBR3 cells, pre-treated 1–10 µM for 3 h, washed, then 11 0.5 µM
# FR = target: FR; set-up: method as in PMID 2552922; conditions: cited from earlier work
compound,measurement,setting,value
CC(C)NCCCn1c(Sc2cc(Cl)cc(Cl)c2)nc2c(N)ncnc21 [PU-WS13],IC50,Hsp90α,27000 nM
same,inhibition of Hsp90 labelling by 11,endogenous Hsp90,less potent inhibition
CCC(C)(C)C(=O)C(=O)N1CCCC[C@H]1C(=O)O[C@H](CCc1ccc(OC)c(OC)c1)c1cccc(OCC(=O)NCCCCCNC(=O)c2ccc(S(=O)(=O)N(CC#N)C(=O)CCCC[C@@H]3SCC4NC(=O)NC43)cc2)c1 (some centres unmarked) [compound 1],FKBP12 labelling yield,FKBP12 [1]; within 15 min,98%
same,"initial rate, fold faster than 2","FKBP12 [1]; FKBP12 labelling, 1 versus 2",49 fold
same,"initial rate, fold faster than 3","FKBP12 [1]; FKBP12 labelling, 1 versus 3",105 fold
same,FKBP12 labelling in the presence of rapamycin (competitive ligand),"FKBP12 [1]; in vitro, with rapamycin",completely abolished
same,"kL, labelling rate constant",FKBP12 [2],(6.1 ± 0.6) × 10^−3 s^−1
same,"kL, fold higher than that of LDT 5",FKBP12 [2]; FKBP12 labelling,635 fold
same,Kd,FKBP12 [2],210 nM
same,kinact/KI,FKBP12 [2],29000 M⁻¹ s⁻¹
same,ratio of unspecific to specific labelling,"FKBP12 [3]; HeLa cell lysate with 1 µM FKBP12, reagent 1–20 µM, 1 h",less than 0.15
same,incubation time after which the labelled band was detectable,endogenous FKBP12,10 min
same,labelling yield of endogenous FKBP12,"endogenous FKBP12; 60 min, 37 °C",78 ± 2% and 78%
same,labelling yield of endogenous FKBP12,endogenous FKBP12; 120 min,almost quantitative
same,half-life at 10 µM,"[4]; HEPES buffer, pH 7.2",43 h
CCC(C)(C)C(=O)C(=O)N1CCCC[C@H]1C(=O)O[C@H](CCc1ccc(OC)c(OC)c1)c1cccc(OCC(=O)NCCCCCNC(=O)c2ccc(S(=O)(=O)N(Cc3ccc([N+](=O)[O-])cc3)C(=O)CCCC[C@@H]3SCC4NC(=O)NC43)cc2)c1 (some centres unmarked) [compound 2],FKBP12 labelling yield,FKBP12 [1]; after a 2-h incubation,22%
same,fraction hydrolysed,[4],5%
CCC(C)(C)C(=O)C(=O)N1CCCC[C@H]1C(=O)O[C@H](CCc1ccc(OC)c(OC)c1)c1cccc(OCC(=O)NCCCCCNC(=O)c2ccc(S(=O)(=O)N(Cc3ccc([N+](=O)[O-])cc3[N+](=O)[O-])C(=O)CCCC[C@@H]3SCC4NC(=O)NC43)cc2)c1 (some centres unmarked) [compound 3],FKBP12 labelling yield,FKBP12 [1]; after a 2-h incubation,17%
same,fraction hydrolysed,[4],5%
"CCC(C)(C)C(=O)C(=O)N1CCCCC1C(=O)OC(CCc1ccc(OC)c(OC)c1)c1cccc(OCC(=O)N2CCN(C(=O)c3cccc(S(=O)(=O)OCCOCCOCCNC(=O)CCCCC4SCC5NC(=O)NC54)c3)CC2)c1 (centres unmarked) [compound 5, reference compound]","kL, labelling rate constant",FKBP12 [2],(9.6 ± 0.2) × 10^−6 s^−1
same,Kd,FKBP12 [2],210 nM
same,kinact/KI,FKBP12 [2],45 ± 6 M⁻¹ s⁻¹
same,endogenous FKBP12 labelling,endogenous FKBP12; <120 min,failed to label FKBP12
CCN(CC)c1ccc2cc(C(=O)NCCOCCOC(=O)n3cnc(CC(=O)NCCCCCNC(=O)CCCCOc4c(OC)cc(Cc5cnc(N)nc5N)cc4OC)c3)c(=O)oc2c1 [compound 6],"kL, labelling rate constant",eDHFR,(5.8 ± 0.1) × 10^−6 s^−1
same,kinact/KI,eDHFR,11 ± 1 M⁻¹ s⁻¹
same,Kd,eDHFR,550 nM
CCN(CC)c1ccc2cc(C(=O)Oc3c(Br)cc(C(=O)NCCCCCNC(=O)CCCCOc4c(OC)cc(Cc5cnc(N)nc5N)cc4OC)cc3Br)c(=O)oc2c1 [compound 7],"kL, labelling rate constant",eDHFR,(3.4 ± 0.3) × 10^−4 s^−1
same,kinact/KI,eDHFR,590 M⁻¹ s⁻¹
same,Kd,eDHFR,580 nM
COc1cc(C(=O)C(=O)N2CCCCC2C(=O)NCCOCCOCC(=O)NCCCCCNC(=O)c2ccc(S(=O)(=O)N(CC#N)C(=O)CCCCC3SCC4NC(=O)NC43)cc2)cc(OC)c1OC (centres unmarked) [compound 8],"kL, labelling rate constant",FKBP12 [2],(7.6 ± 1.7) × 10^−3 s^−1
same,"kL/Kd, fold less than 1",FKBP12 [2]; FKBP12 labelling,392 fold
same,Kd,FKBP12 [2],100000 nM
same,kinact/KI,FKBP12 [2],74 ± 19 M⁻¹ s⁻¹
same,concentration required to obtain the same signal intensity as biotinylated FKBP12 labelled by 1,"FKBP12 [3]; HeLa cell lysate with 1 µM FKBP12, 1 h, 1 at 1 µM",20 µM
N#CCN(C(=O)CCCC(=O)NCCCn1c(Sc2cc3c(cc2I)OCO3)nc2c(N)ncnc21)S(=O)(=O)c1ccccc1 [compound 12],cytotoxicity / growth inhibitory effect after washout,SKBR3 cells,clearly showed a growth inhibitory effect
same,Hsp90-client protein levels after washout,[5],decrease in Hsp90-client proteins was also observed
same,Ki,[6],62 nM
same,kinact/KI,"[6]; pH 7.2, read-out: second-order rate constant of the covalent inhibition",29000 M⁻¹ s⁻¹
same,covalent attachment of the PU-H71 ligand to Hsp90 N-terminal domain,[7],quantitative and single covalent attachment
same,blocking of fluorescent labelling of Hsp90 by 11 after washout,intracellular Hsp90,strongly inhibited the fluorescent labelling
CN(Cc1cnc2nc(N)nc(N)c2n1)c1ccc(C(=O)N[C@@H](CCC(=O)O)C(=O)O)cc1 [methotrexate],Kd,FR,~200 nM

# — publication PMC5951806, “Rapid labelling and covalent inhibition of intracellular native proteins using ligand-directed N-acyl-N-alkyl sulfonamide” (Nature Communications, 2018)
